Laboratory results: US20240075017A1 (priority 2021, published 2024)
“Also recorded” adds a separate entry of the source.

Legend:
SARS-CoV-2-GFP = type: cell-based
[1] = test system: wild-type (wt) SARS-CoV-2; experiment: Plaque assay of released viral progeny from pre-treated Vero E6 cells; type: cell-based; conditions: 6 h pre-treatment, range of concentrations, MOI 0.01, 48 hours post-infection
[2] = test system: SARS-CoV-2 (strain MUC-IMB-1); experiment: Viral nucleoprotein (NP) western blot in A549-ACE2 cells; type: cell-based
[3] = test system: SARS-CoV (strain Frankfurt 1); type: cell-based; conditions: A549-ACE2 cells, 6 h pre-treatment, 24 hours infection
[4] = test system: SARS-CoV-2 (strain MUC-IMB-1); experiment: NP immunofluorescence in primary normal human bronchial cells (NHBE) ex vivo; type: cell-based; conditions: 6 h pre-treatment, MOI 3, 24 hours post-infection
[5] = test system: SARS-CoV-2 (strain MUC-IMB-1); type: cell-based
NHBE cells = type: cell-based, human
IL6 = type: cell-based, human; conditions: NHBEs, 0.75 μM, mock-, SARS-CoV or SARS-CoV-2 infected, 24 h post-infection
IP-10 = experiment: Secreted IP10 by ELISA in NHBEs; type: cell-based, human
SARS-CoV = conditions: described previously (ref. 70); cited from earlier work

NC(CCSCCCCC(=O)O)C(=O)O (racemic) [CBHcy, S-(4-Carboxybutyl)-D,L-homocysteine]
antiviral activity: growth of SARS-CoV-2-GFP reporter virus (SARS-CoV-2-GFP): have antiviral activity against SARS-CoV-2 | released viral progeny in the supernatant by plaque assay [1]: dose-dependent suppression of the wt SARS-CoV-2

Nc1ncnc2c1ncn2C[C@@H](O)[C@@H](O)C(=O)O [DER, D-eritadenine]
antiviral activity: growth of SARS-CoV-2-GFP reporter virus (SARS-CoV-2-GFP): have antiviral activity against SARS-CoV-2

Nc1nccc2c1ncn2[C@@H]1C=C(CO)[C@@H](O)[C@H]1O [DZNep, 3-deazaneplanocin A]
antiviral activity: growth of SARS-CoV-2-GFP reporter virus (SARS-CoV-2-GFP): have antiviral activity against SARS-CoV-2; also recorded: particularly strong antiviral efficacy | role of STAT1 dependent interferon response in SARS-CoV-2 inhibition by the compound (SARS-CoV-2-GFP; STAT1 KO vs NTC A549-ACE2 cells, 6 h pre-treatment with DZNep and/or interferon alpha): does not play a major role in SARS-CoV-2 inhibition in vitro | released viral progeny in the supernatant by plaque assay [1]: dose-dependent suppression of the wt SARS-CoV-2 | virus nucleoprotein (NP) expression by western blot [2]: potent antiviral effect against SARS-CoV-2 | antiviral effect against SARS-CoV, expression of viral protein N [3]: do not observe an antiviral effect | inhibition of SARS-CoV-2 in primary human ex-vivo infection model [4]: potent inhibitor of SARS-CoV-2 | expression of viral proteins (SARS-CoV-2) by mass spectrometry [5]: clear reduction | abundance changes of NP and spike (S), SARS-CoV-2 ([5]; A549-ACE2 (0.75 μM, 24 h) and NHBEs (1.5 μM, 36 h)): DZNep-dependent inhibition of SARS-CoV-2 | abundance of innate immunity related factors (e.g. IL1RN, C3 and TNFAIP3/A20) (NHBE cells): DZNep-dependent changes in abundance | factors counteracting fibrotic processes (e.g. ELAFIN, SLPI and ECM1) (NHBE cells): up-regulation of factors counteracting fibrotic processes | factors of extrinsic coagulation cascade (e.g. F3 and TFPI2) and plasminogen activation system (e.g. PAI1, PLAT, PLAU) (NHBE cells): reduction of factors of extrinsic coagulation cascade | pulmonary fibrosis biomarkers (e.g. COL4A1, MMP14 and SERPINE1) (NHBE cells): reduction of pulmonary fibrosis biomarkers | IL6 secretion/expression by ELISA (IL6): significantly reduced IL6 expression in all tested conditions | IP-10 secretion by ELISA (IP-10): IP-10 secretion was enhanced | antiviral activity against SARS-CoV in an in vivo infection model (SARS-CoV): did not show antiviral activity against SARS-CoV

CNc1ccc(/C=C/c2c(F)cccc2Cl)cc1 [FIDAS-5, (E)-4-(2-chloro-6-fluorostyryl)-N-methylaniline]
antiviral activity of co-treatment with DZNep (SARS-CoV-2-GFP): synergistic antiviral activity | antiviral activity: growth of SARS-CoV-2-GFP reporter virus (SARS-CoV-2-GFP): have antiviral activity against SARS-CoV-2 | released viral progeny in the supernatant by plaque assay [1]: dose-dependent suppression of the wt SARS-CoV-2

CCN(CCO)CCCC(C)Nc1ccnc2cc(Cl)ccc12 (stereo not drawn) [Hydroxychloroquine]
influence of DZNep co-treatment on the antiviral efficacy of the compound (SARS-CoV-2-GFP): does not negatively influence the antiviral efficacy

Cc1nc2ccc(-c3c(Nc4ccccn4)[nH]c4c(-c5ccccc5)c(-c5ccccc5)nn4c3=O)cc2s1 [MAT2A inhibitor 1]
antiviral activity: growth of SARS-CoV-2-GFP reporter virus (SARS-CoV-2-GFP): have antiviral activity against SARS-CoV-2

CN(C)CCc1nnc2cc(-c3ccccc3)c3cc(Cl)ccc3n12 [PF-9366, 2-(7-Chloro-5-phenyl-[1,2,4]triazolo[4,3-a]quinolin-1-yl)-N,N-dimethylethan-1-amine]
antiviral activity: growth of SARS-CoV-2-GFP reporter virus (SARS-CoV-2-GFP): have antiviral activity against SARS-CoV-2

CC(C)NC[C@@H](C(=O)N1CCN(c2ncnc3c2[C@H](C)C[C@H]3O)CC1)c1ccc(Cl)cc1 [ipatasertib]
influence of DZNep co-treatment on the antiviral efficacy of the compound (SARS-CoV-2-GFP): does not negatively influence the antiviral efficacy

CNC(=O)[C@@H](NC(=O)[C@H](CC(C)C)[C@H](O)C(=O)NO)C(C)(C)C [marimastat]
influence of DZNep co-treatment on the antiviral efficacy of the compound (SARS-CoV-2-GFP): does not negatively influence the antiviral efficacy

IFN-α
synergy of combination with DZNep (combination index, CI) (SARS-CoV-2-GFP): strong synergism
